Measurements as given in patent publication US20260103726A1, “CONTROL SYSTEM FOR INDUCING TRANSGENE EXPRESSION BY MEANS OF D-2-HG, AND CONSTRUCTION METHOD THEREFOR AND USES THEREOF” (priority 2023, published 2026).

Columns and labels:
HEK293FT cells = assay: HGind-H composed of two plasmids transfected into HEK293FT cells, D2eGFP fluorescence intensity after D-2-HG addition; format: cell-based; conditions: ratio 0.4
Protocol: (3) The plasmid was transfected into HEK293FT cells with lipofectamine 3000; a transfection plasmid combination 1 was pCDNA3.1(+)-DhdR-KRAB and pCDNA3.1(+)-DhdO10-D2eGFP or a plasmid combination 2 was pCDNA3.1(+)-KRAB-DhdR and pCDNA3.1(+)-DhdO10-D2eGFP; 3*105/well of cells were seeded in a 12-well plate, pcDNA3.1(+)-DhdO10-D2eGFP was added at lug/well, and the ratio of the recombinant transcriptional repressor plasmid to PcDNA3.1(+)-DhdO10-D2eGFP was 0:1, 1:1, 3:1.
(4) On the next day, D-2-HG was added at concentrations of 0 mM, 1 mM, 5 mM, and 10 mM; 64 h after transfection, a fluorescence microscope was used to take pictures, the supernatant was aspirated, a fluorescence microplate reader measured fluorescence intensities, and results were shown in FIG. 2.
(1) pCDNA3.1(+)-DhdR-KRAB and pCDNA3.1(+)-DhdO10-D2eGFP were selected, and then transfected using liposomes as above; the ratio of the two plasmids was set to 0, 0.1, 0.3, 0.4, 0.5, 0.75, 1.
(2) On the next day, D-2-HG was added at concentrations of 0 mM and 5 mM; and 64 h after transfection, a fluorescence microscopy was used to take pictures, the supernatant was aspirated, and a fluorescence microplate reader measured a fluorescence intensity. […]
(2) On the next day, D-2-HG was added at concentrations of 0, 0.5, 1, 5, 10, and 20 mM; and a fluorescence microplate reader measured a fluorescence intensity.

HT1080-DHDO14 tumor = assay: HGind-H control of suicide gene in animals, HT1080 vs HT1080-DHDO14 tumors with GCV; format: in vivo, Balb/c nude crlj; conditions: GCV 50 mg/kg per day i.p.
Protocol: (1) 18 Balb/c nude crlj which are male and 5 weeks old were purchased. HT1080 and HT-1080-DHDO14 cells were resuspended with PBS and injected at 1.5×10^6 cells/side*mouse (volume: 100 μl), where HT1080 was injected into the left backs of the mice and HT1080-DHDO14 was injected into the right backs of the mice.
(2) The mice were divided into two groups, the control group (n=8) was injected with normal saline, and the experimental group (n=10) was injected with ganciclovir (GCV).
(3) From the 5th to the 12th day of tumor model construction, each mouse in the control group was intraperitoneally injected with normal saline at 100 μl/day, and each mouse in the experimental group was intraperitoneally injected with GCV at 50 mg/kg per day. Starting from the 8th day, the long and short diameters of tumors of the mice were measured every day.
(4) The mice were killed on the 14th day and the tumors of the mice were weighed.

Row | SMILES | fluorescence intensity (D2eGFP expression) (HEK293FT cells; 0.5 mM D-2-HG vs 0 mM group, pCDNA3.1(+)-DhdR-KRAB and DhdO7-D2eGFP) | fluorescence intensity (D2eGFP expression), dose response (HEK293FT cells; D-2-HG 0, 0.5, 1, 5, 10, 20 mM) | size of HT1080-DHDO14 tumor vs HT1080 tumor on the left side (HT1080-DHDO14 tumor; day 5 to 12) | volume of the HT1080-DHDO14 tumor vs the other three groups (HT1080-DHDO14 tumor; later stage of measurement) | weight of the HT1080-DHDO14 tumor vs the other 3 groups (HT1080-DHDO14 tumor; mice killed on the 14th day)
1 | O=C(O)CC[C@@H](O)C(=O)O [D-2-HG, D-2-hydroxyglutarate] | significant difference | as the concentration increases, the fluorescence intensity becomes larger and larger |  |  | 
2 | Nc1nc(O)c2ncn(COC(CO)CO)c2n1 [GCV, ganciclovir] |  |  | significantly smaller | significantly less | significantly less
